A value given as a limit tells only on which side of the number the result lay.

In this assay the target is T1, human capsaicin receptor (Homo sapiens, UniProt Q8NER1).
T1 construct: pBK-CMV expression construct encoding the full length human capsaicin receptor; expressed in transfected cells
As to the kind of experiment: Calcium mobilization assay, determination of antagonist activity (Example 6). To be noted: 50% decrease in fluorescence response of cells expressing human capsaicin receptor exposed to capsaicin. In kind it is cell-based. The method, boiled down: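 HEK293 cells stably expressing full-length human capsaicin receptor, Fluo-3 AM loaded, preincubated with compound 0.5–6 h at room temperature in KRH buffer pH 7.4. Challenged with capsaicin at its EC50; FLIPR fluorescence read. IC50 is concentration halving the capsaicin-induced calcium response.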

T1 sequence (Q8NER1 whole entry): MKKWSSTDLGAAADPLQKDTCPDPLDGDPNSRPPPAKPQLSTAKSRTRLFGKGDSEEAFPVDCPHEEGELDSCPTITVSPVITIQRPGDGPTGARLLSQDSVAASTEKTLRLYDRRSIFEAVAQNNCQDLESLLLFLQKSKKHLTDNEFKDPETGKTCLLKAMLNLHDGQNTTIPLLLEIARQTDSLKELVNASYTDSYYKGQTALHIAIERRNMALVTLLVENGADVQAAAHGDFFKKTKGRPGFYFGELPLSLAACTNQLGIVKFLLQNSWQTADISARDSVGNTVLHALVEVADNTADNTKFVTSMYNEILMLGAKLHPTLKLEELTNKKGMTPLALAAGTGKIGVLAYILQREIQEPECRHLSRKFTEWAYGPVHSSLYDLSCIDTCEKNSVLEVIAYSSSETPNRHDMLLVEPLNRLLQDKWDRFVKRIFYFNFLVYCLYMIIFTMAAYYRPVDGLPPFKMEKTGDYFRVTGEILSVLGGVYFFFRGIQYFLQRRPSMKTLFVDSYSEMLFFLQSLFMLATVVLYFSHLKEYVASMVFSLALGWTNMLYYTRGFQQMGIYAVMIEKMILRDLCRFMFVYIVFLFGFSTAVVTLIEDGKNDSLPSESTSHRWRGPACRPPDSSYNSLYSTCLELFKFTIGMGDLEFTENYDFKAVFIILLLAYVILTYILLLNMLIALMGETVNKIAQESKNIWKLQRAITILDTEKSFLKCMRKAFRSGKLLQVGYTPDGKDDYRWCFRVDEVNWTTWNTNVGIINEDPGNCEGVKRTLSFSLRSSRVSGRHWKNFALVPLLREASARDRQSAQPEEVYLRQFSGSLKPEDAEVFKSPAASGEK

As for `COc1ccc(Nc2nc(N3CCOCC3)cc(N3CCN(c4ncccc4C(F)(F)F)CC3)n2)cc1` [Compound 89, (4-Methoxy-phenyl)-{4-morpholin-4-yl-6-[4-(3-trifluoromethyl-pyridin-2-yl)-piperazin-1-yl]-pyrimidin-2-yl}-amine], the half-inhibitory concentration (IC50) is not above 1 µM.

`CCN(CC)c1nc(Nc2ccc(F)cc2)nc(N2CCN(c3ncccc3Cl)CC2)n1` [Compound 90, 6-[4-(3-Chloro-pyridin-2-yl)-piperazin-1-yl]-N,N-diethyl-N′-(4-fluoro-phenyl)-[1,3,5]triazine-2,4-diamine]: the IC50 was not above 1 µM.

Regarding `CCN(CC)c1nc(Nc2ccc(F)c(F)c2)nc(N2CCN(c3ncccc3Cl)CC2)n1` [Compound 91, 6-[4-(3-Chloro-pyridin-2-yl)-piperazin-1-yl]-N-(3,4-difluoro-phenyl)-N′,N′-diethyl-[1,3,5]triazine-2,4-diamine], the half-maximal inhibitory concentration (IC50) was not above 1 µM.

Consider `CCN(CC)c1nc(Nc2cccc(Cl)c2)nc(N2CCN(c3ncccc3Cl)CC2)n1` [Compound 92, N-(3-Chloro-phenyl)-6-[4-(3-chloro-pyridin-2-yl)-piperazin-1-yl]-N′,N′-diethyl-[1,3,5]triazine-2,4-diamine], for which the 50% inhibitory concentration (IC50) was not above 1 µM.

As to `CCN(CC)c1nc(Nc2cccc(OC)c2)nc(N2CCN(c3ncccc3Cl)CC2)n1` [Compound 93, 6-[4-(3-Chloro-pyridin-2-yl)-piperazin-1-yl]-N,N-diethyl-N′-(3-methoxy-phenyl)-[1,3,5]triazine-2,4-diamine], the IC50 was not above 1 µM.

`CCN(CC)c1nc(Nc2ccc(F)cc2)nc(N2CCN(c3ccccn3)CC2)n1` [Compound 94, N,N-Diethyl-N′-(4-fluoro-phenyl)-6-(4-pyridin-2-yl-piperazin-1-yl)-[1,3,5]triazine-2,4-diamine]: the concentration for half-maximal inhibition (IC50) was not above 1 µM.

For `CCN(CC)c1nc(Nc2ccc(F)c(F)c2)nc(N2CCN(c3ccccn3)CC2)n1` [Compound 95, N-(3,4-Difluoro-phenyl)-N′,N′-diethyl-6-(4-pyridin-2-yl-piperazin-1-yl)-[1,3,5]triazine-2,4-diamine], the half-maximal inhibitory concentration (IC50) was not above 1 µM.

For the molecule `FC(F)(F)c1ccc(Nc2nc(N3CCOCC3)nc(N3CCN(c4ncccc4Cl)CC3)n2)cc1` [Compound 96, {4-[4-(3-Chloro-pyridin-2-yl)-piperazin-1-yl]-6-morpholin-4-yl-[1,3,5]triazin-2-yl}-(4-trifluoromethyl-phenyl)-amine], the concentration for half-maximal inhibition (IC50) is not above 1 µM.

On to `Clc1cccnc1N1CCN(c2nc(Nc3ccccc3)nc(N3CCOCC3)n2)CC1` [Compound 97, {4-[4-(3-Chloro-pyridin-2-yl)-piperazin-1-yl]-6-morpholin-4-yl-[1,3,5]triazin-2-yl}-phenyl-amine], for which the 50% inhibitory concentration (IC50) was not above 1 µM.

For `Fc1ccc(Nc2cc(N3CCN(c4ccccn4)CC3)nc(N3CCOCC3)n2)cc1` [Compound 98, (4-Fluoro-phenyl)-[2-morpholin-4-yl-6-(4-pyridin-2-yl-piperazin-1-yl)-pyrimidin-4-yl]-amine], the half-inhibitory concentration (IC50) was not above 1 µM.

As to `CCN(CC)c1nc(Nc2ccc(F)c(F)c2)nc(N2CCN(c3ncccc3C(F)(F)F)C[C@H]2C)n1` [Compound 99, N-(3,4-Difluoro-phenyl)-N′,N′-diethyl-6-[2-methyl-4-(3-trifluoromethyl-pyridin-2-yl)-piperazin-1-yl]-[1,3,5]triazine-2,4-diamine (R)], the IC50 is not above 1 µM.

With `CCN(CC)c1nc(Nc2ccc(F)c(F)c2)nc(N2CCN(c3ncccc3Cl)C[C@H]2C)n1` [Compound 100, 6-[4-(3-Chloro-pyridin-2-yl)-2-methyl-piperazin-1-yl]-N-(3,4-difluoro-phenyl)-N′,N′-diethyl-[1,3,5]triazine-2,4-diamine (R)], the concentration for half-maximal inhibition (IC50) was not above 1 µM.

Turning to `C[C@@H]1CN(c2ncccc2Cl)CCN1c1nc(Nc2ccc(F)c(F)c2)nc(N2CCOCC2)n1` [Compound 101, {4-[4-(3-Chloro-pyridin-2-yl)-2-methyl-piperazin-1-yl]-6-morpholin-4-yl-[1,3,5]triazin-2-yl}-(3,4-difluoro-phenyl)-amine (R)], the 50% inhibitory concentration (IC50) is not above 1 µM.

In the case of `CCN(CC)c1nc(Nc2ccc(F)c(F)c2)nc(N2CCN(c3ncccc3S(C)(=O)=O)C[C@H]2C)n1` [Compound 102, N-(3,4-Difluoro-phenyl)-N′,N′-diethyl-6-[4-(3-methanesulfonyl-pyridin-2-yl)-2-methyl-piperazin-1-yl]-[1,3,5]triazine-2,4-diamine (R)], the 50% inhibitory concentration (IC50) was not above 1 µM.

With `C[C@@H]1CN(c2ncccc2S(C)(=O)=O)CCN1c1nc(Nc2ccc(F)c(F)c2)nc(N2CCOCC2)n1` [Compound 103, (3,4-Difluoro-phenyl)-{4-[4-(3-methanesulfonyl-pyridin-2-yl)-2-methyl-piperazin-1-yl]-6-morpholin-4-yl-[1,3,5]triazin-2-yl}-amine (R)], the IC50 was not above 1 µM.

As to `Fc1ccc(Nc2cc(N3CCOCC3)nc(N3CCN(c4ncccc4C(F)(F)F)CC3)n2)cc1` [Compound 105, (4-Fluoro-phenyl)-{6-morpholin-4-yl-2-[4-(3-trifluoromethyl-pyridin-2-yl)-piperazin-1-yl]-pyrimidin-4-yl}-amine], the IC50 was not above 1 µM.

For `Cc1ccc(Nc2cc(N3CCOCC3)nc(N3CCN(c4ncccc4C(F)(F)F)CC3)n2)cc1` [Compound 106, {6-Morpholin-4-yl-2-[4-(3-trifluoromethyl-pyridin-2-yl)-piperazin-1-yl]-pyrimidin-4-yl}-p-tolyl-amine], the IC50 is not above 1 µM.

In the case of `CCN(CC)c1nc(Nc2ccc(C#N)cc2)nc(N2CCN(c3ncccc3Cl)CC2)n1` [Compound 107, 4-{4-[4-(3-Chloro-pyridin-2-yl)-piperazin-1-yl]-6-diethylamino-[1,3,5]triazin-2-ylamino}-benzonitrile], the IC50 was not above 1 µM.

Turning to `CCN(CC)c1nc(Nc2cc(OC)ccc2OC)nc(N2CCN(c3ccccn3)CC2)n1` [Compound 108, N-(2,5-Dimethoxy-phenyl)-N′,N′-diethyl-6-(4-pyridin-2-yl-piperazin-1-yl)-[1,3,5]triazine-2,4-diamine], the concentration for half-maximal inhibition (IC50) is not above 1 µM.

For the molecule `COCc1nc(Nc2ccc(F)c(F)c2)cc(N2CCN(c3ncccc3C(F)(F)F)CC2)n1` [Compound 109, (3,4-Difluoro-phenyl)-{2-methoxymethyl-6-[4-(3-trifluoromethyl-pyridin-2-yl)-piperazin-1-yl]-pyrimidin-4-yl}-amine], the IC50 is not above 1 µM.

`OCc1nc(Nc2ccc(F)c(F)c2)cc(N2CCN(c3ncccc3C(F)(F)F)CC2)n1` [Compound 110, {4-(3,4-Difluoro-phenylamino)-6-[4-(3-trifluoromethyl-pyridin-2-yl)-piperazin-1-yl]-pyrimidin-2-yl}-methanol]: the IC50 was not above 1 µM.

Turning to `CCN(CC)Cc1nc(Nc2ccc(F)c(F)c2)cc(N2CCN(c3ncccc3C(F)(F)F)CC2)n1` [Compound 111, {2-Diethylaminomethyl-6-[4-(3-trifluoromethyl-pyridin-2-yl)-piperazin-1-yl]-pyrimidin-4-yl}-(3,4-difluoro-phenyl)-amine], the half-inhibitory concentration (IC50) was not above 1 µM.

Regarding `Fc1ccc(Nc2cc(N3CCN(c4ncccc4C(F)(F)F)CC3)nc(CN3CCOCC3)n2)cc1F` [Compound 112, (3,4-Difluoro-phenyl)-{2-morpholin-4-ylmethyl-6-[4-(3-trifluoromethyl-pyridin-2-yl)-piperazin-1-yl]-pyrimidin-4-yl}-amine], the IC50 is not above 1 µM.

Take `C[C@@H]1CN(Cc2nc(Nc3ccc(F)c(F)c3)cc(N3CCN(c4ncccc4C(F)(F)F)CC3)n2)C[C@H](C)O1` [Compound 113, (3,4-Difluoro-phenyl)-{2-(2,6-dimethyl-morpholin-4-ylmethyl)-6-[4-(3-trifluoromethyl-pyridin-2-yl)-piperazin-1-yl]-pyrimidin-4-yl}-amine]: the IC50 was not above 1 µM.

As to `CCCCc1ccc(-c2nc(Nc3ccc(C(F)(F)F)cc3)nc(N3CCN(c4ncccc4Cl)C[C@H]3C)n2)cc1` [Compound 115, {4-(4-Butyl-phenyl)-6-[4-(3-chloro-pyridin-2-yl)-2-methyl-piperazin-1-yl]-[1,3,5]triazin-2-yl}-(4-trifluoromethyl-phenyl)-amine], the IC50 was not above 1 µM.

`COc1ccc(-c2nc(Nc3ccc(C(F)(F)F)cc3)nc(N3CCN(c4ncccc4Cl)C[C@H]3C)n2)c(OC)c1` [Compound 116, [4-[4-(3-Chloro-pyridin-2-yl)-2-methyl-piperazin-1-yl]-6-(2,4-dimethoxy-phenyl)-[1,3,5]triazin-2-yl]-(4-trifluoromethyl-phenyl)-amine]: the IC50 is not above 1 µM.

The values are drawn from patent publication US20070043049A1, “Substituted heterocyclic diarylamine analogues” (Neurogen Corporation, priority 2003, published 2007).
